Laboratory results as given in patent US11198761B2, “Biodegradable polyionenes” (AGENCY FOR SCIENCE, TECHNOLOGY AND RESEARCH, priority 2017, dated 2021).

Legend:
E. coli (ATCC No. 25922) = assay: MIC, broth microdilution; type: cell-based, Escherichia coli; conditions: Gemini-surfactant series S; 18 hours, 37° C.
Description: (§1) Bacterial and fungal samples were inoculated according to ATCC's requirement. Briefly, bacteria and fungi were grown in Mueller Hinton Broth (MHB) at 37° C. and room temperature, respectively overnight to allow the microbes to enter the log growth phase with constant 100 rpm shaking. Minimum inhibitory concentration (MIC) of the polymers was determined using the broth microdilution method. 100 μL of 20% v/v water-containing broth with various polymer or Gemini-surfactant concentrations was first added into each well of a 96-well tissue culture plate. The inoculated overnight microbe solution was first diluted to an optical density (O.D.) reading of 0.07 using a microplate reader (TECAN, Switzerland). This will correspond to 3×10^8 CFU/mL based on the McFarland 1 standard solution (CFU=colony forming units). The microbe solution was further diluted 1000 times to achieve a final 3×10^5 CFU/mL. To each well, an equal volume of diluted microbes solution was added and incubated at 37° C. for 18 hours for bacteria samples and at room temperature for 42 hours for fungi samples. There were 6 replicates for each concentration tested, with negative control being microbes added into broth containing 20% v/v deionized water. MIC was taken as the lowest concentration at which there was no observable microbe growth when measured by the microplate reader.

E. coli biofilms [1] = assay: XTT assay for cell viability of biofilms; type: cell-based, Escherichia coli; conditions: 18 hours treatment
Description: (§2) The bacteria stock was diluted in Mueller Hinton Broth (MHB) to get an optical density (OD) reading of 0.07 at 600 nm. 48 wells of a 96 flat-well plate were plated with 100 μL of bacteria suspension each. The plate was then incubated at 37° C. Every day over the next 7 days, MHB was carefully removed from the plate so as not to disturb the biofilm at the bottom of the well, and replaced with 100 μL of fresh MHB to each well.
(§3) After the biofilm was cultured, at the end of 7 days, MHB was removed from the wells. The biofilms were washed carefully with PBS 3 times to remove planktonic cells. The surfactant was weighed in a micro-centrifuge tube, and the weighed sample was diluted to 10,000 mg L^−1 using distilled water. Serial dilution was conducted to obtain surfactant solutions having concentrations of 100 mg L^−1, 70 mg L^−1, 50 mg L^−1, 35 mg L^−1, 25 mg L^−1, 20 mg L^−1, and 10 mg L^−1. The solvent was 20% distilled water and 80% MHB for each solution. The control was 20% distilled water and 80% MHB without surfactant. The surfactant solutions of different concentrations were added to the wells, 100 μL into each, with 6 replicates for each concentration. The plate was then incubated at 37° C. for 18 hours. […] At the end of the incubation period, the optical density (OD) reading of the plate was taken at 490 nm.

E. coli biofilms [2] = assay: Biofilm biomass assay (safranin O); type: cell-based, Escherichia coli; conditions: 18 hours treatment
Description: as §2
as §3, with “10000” for “10,000”, “of” for “having”, “concentrations” for “concentrations of”, “was” for “was then”, “550” for “490”

[3] = tested on: S. aureus, E. coli, P. aeruginosa, C. albicans; assay: Killing kinetics, several strains together; type: cell-based
Description: 600 μL of 3×10^5 CFU/mL microbial suspension was added to each concentration of the polymer. […] 20 μL of the diluted microbial suspension was then plated onto agar plates and incubated for 24 hours and 42 hours at 37° C. and room temperature for bacteria and fungi respectively, then manually counted for CFU.

[4] = tested on: rat red blood cells (rRBCs); assay: Hemolysis assay; type: cell-based; conditions: Gemini-surfactant series S; 1 hour, 37° C.
Description: Freshly obtained rat red blood cells (rRBC) from the Animal Handling Unit of Biomedical Research Center (Singapore) was used to test the hemolytic activity of the polymers and Gemini-surfactants. The rRBC was diluted to 4% v/v with phosphate-buffered saline (PBS) and added to an equal volume of 0.2% v/v Triton-X solution. A microplate reader was used to measure the optical density (O.D.) reading to make sure the value is between 0.5 and 0.6. An equal volume of different polymer or Gemini-surfactant concentrations was added to the diluted blood and incubated for 1 hour at 37° C. The samples were centrifuged at 1000 g at 4° C. for 5 minutes and 100 μL of the supernatant was collected and transferred to a 96-well tissue culture plate. There were 4 replicates for each concentration. Haemoglobin release was measured using the microplate reader at 576 nm. rRBCs treated with PBS were used as the […] control, while those treated with 0.2% v/v Triton-X was used as the […] control.
Percentage of hemolysis was calculated as follows: Hemolysis (%)═[(O.D.576 nm of the treated sample−O.D.576 nm of negative control)/(O.D.576 nm of positive control−O.D.576 nm of negative control)]×100%
HC50 was taken as the polymer concentration at which the polymer causes 50% hemolysis.

[5] = tested on: S. aureus (ATCC No. 6538); assay: MIC, broth microdilution; type: cell-based, Staphylococcus aureus; conditions: Gemini-surfactant series S; 18 hours, 37° C.
Description: as §1

[6] = tested on: S. aureus, E. coli, P. aeruginosa, C. albicans; assay: Killing efficiency test (CFU on agar after MIC testing); type: cell-based; conditions: at MIC and 2×MIC, all the microbes
Description: After MIC testing, all solutions from the control, ½MIC, MIC and 2MIC wells were collected and subjected to a series of ten-fold dilution. 20 μL of the diluted microbe solution was streaked onto pre-casted agar plates using LB+1.5% agar from the first Base. Agar plates with bacteria samples were incubated at 37° C. for 18 hours while those with fungi samples were incubated for 42 hours at room temperature before the CFUs were counted.

S. aureus biofilms [7] = assay: XTT assay for cell viability of biofilms; type: cell-based, Staphylococcus aureus; conditions: 18 hours treatment
Description: as §2, §3

[8] = tested on: C. albicans (ATCC No 10231); assay: MIC, broth microdilution; type: cell-based, Candida albicans; conditions: Gemini-surfactant series S; 42 hours, room temperature
Description: as §1

[9] = tested on: P. aeruginosa (ATCC No. 9027); assay: MIC, broth microdilution; type: cell-based, Pseudomonas aeruginosa; conditions: Gemini-surfactant series S; 18 hours, 37° C.
Description: as §1

S. aureus biofilms [10] = assay: Biofilm biomass assay (safranin O); type: cell-based, Staphylococcus aureus; conditions: 18 hours treatment
Description: as §2
as §3, with “10000” for “10,000”, “of” for “having”, “concentrations” for “concentrations of”, “was” for “was then”, “550” for “490”

K. pneumoniae 8637 [11] = assay: Efficacy (ED50/ED95) in K. pneumoniae 8637-induced pneumonia; type: in vivo; conditions: immunosuppressed mice, intraperitoneally once daily for 3 days, survival over 5 days, BLISS method
Description: ICR mice (female, 7 weeks old, 24-26 mg) were used for the in vivo studies. Immunosuppression was induced by intraperitoneal injection of 200 mg/Kg cyclophosphamide (Hengrui Corp, Jiangsu Province, P. R. China) 4 days prior to infection. Mice were anesthetized by intra-peritoneal injection of 1% pentobarbital (40 mg/kg, Sigma).
The immunosuppression of mice was induced as described above. Overnight cultures of K. pneumoniae 8637 were harvested and suspended in PBS. Before instillation with K. pneumoniae 8637, the mice were anesthetized using an intraperitoneal injection with 1% pentobarbital (40 mg/kg). Each of the immunosuppressed mice was infected intranasally with 0.03 mL of the bacterial suspension at designated doses (i.e. 1×10^9, 1.5×10^9, 2.3×10^9, 3.5×10^9, 5.3×10^9, 8.0×10^9 CFU/ml, four mice per group). The minimum lethal dose was defined as the lowest dose, which was sufficient to cause 100% mortality. It was determined from the survival rate of mice at 5 days post-infection by the BLISS method.
The number of surviving mice in each group was recorded for 5 days to assess ED50 by the BLISS method.

K. pneumoniae 8637 [12] = assay: Survival of K. pneumoniae 8637-infected mice; type: in vivo; conditions: 2.0 mg/kg intraperitoneally once daily for 3 days, five days, n=10
Description: ICR mice (female, 7 weeks old, […]) were used for the in vivo studies. Immunosuppression was induced by intraperitoneal injection of 200 mg/Kg cyclophosphamide (Hengrui Corp, Jiangsu Province, P. R. China) 4 days prior to infection. Mice were anesthetized by intra-peritoneal injection of 1% pentobarbital (40 mg/kg, Sigma).
To investigate the in vivo antibacterial efficacy of P-1a-1 (6037B), a pneumonia mouse model was established. The immunosuppression of mice was induced as described above. Overnight cultures of K. pneumoniae 8637 were harvested and suspended in PBS. Before instillation with K. pneumoniae 8637, the mice were anesthetized using an intraperitoneal injection with 1% pentobarbital (40 mg/kg). […] It was determined from the survival rate of mice at 5 days post-infection by the BLISS method.
To further determine the in vivo therapeutic efficacy of P-1a-1 (6037B), survival of the K. pneumoniae 8637-infected mice was monitored with and without treatment. […] After being anesthetized, each of the immunosuppressed mice was inoculated intranasally with 0.03 mL of bacterial suspension at the minimum lethal dose determined above. […] The mice were monitored for a period of five days, and the number of surviving mice in each group was recorded. […]

Row | MIC EC (E. coli (ATCC No. 25922)) [ppm] | MIC SA [5] [ppm] | MIC CA [8] [ppm] | MIC PA [9] [ppm] | Compound | biofilm cell viability (E. coli biofilms [1]) | biomass of biofilm (E. coli biofilms [2]) | killing of all four strains of microbes ([3]; 16 and 32×MIC, 2 minutes) | concentration needed to completely eradicate the microbes ([3]; 30 seconds) [×MIC] | Hemolysis, HC50 [4] | reduction in the colony forming units (CFU) [6] [%] | biofilm cell viability (S. aureus biofilms [7]) | biomass of biofilm (S. aureus biofilms [10]) | ED50 (K. pneumoniae 8637 [11]; Klebsiella pneumoniae, 8637, ip) [mg/kg] | ED95 (K. pneumoniae 8637 [11]) [mg/kg] | survival (K. pneumoniae 8637 [12]) [%]
1 | 1 | 1 | 2 | 8 | CCCCCCCCCC[N+](C)(C)Cc1ccc(C(=O)NCCCCCCNC(=O)c2ccc(C[N+](C)(C)CCCCCCCCCC)cc2)cc1.[Cl-].[Cl-] [S-3g] | reduced in a dose dependent manner | reduced in a dose dependent manner | completely killed | 64 | 125-250 ppm | ≥ 99.9 | reduced in a dose dependent manner | reduced in a dose dependent manner | – | – | –
2 | – | – | – | – | C[C@@H](O)[C@H]1C(=O)N2C(C(=O)O)=C(SCCN=CN)C[C@H]12 [imipenem] | – | – | – | – | – | – | – | – | 2.75 | 20.0 | 60
3 | >500 | >500 | >500 | >500 | C[N+](C)(Cc1ccc(C(=O)NCCOCCOCCNC(=O)c2ccc(C[N+](C)(C)C3CCCCC3)cc2)cc1)C1CCCCC1.[Cl-].[Cl-] [S-5c] | – | – | – | – | >2000 ppm | – | – | – | – | – | –
